Patent US20260374792A1, “PHENYL-FREE BISCATIONIC QUATERNARY PHOSPHONIUM COMPOUNDS AS ANTIMICROBIAL AGENTS” (priority 2022, published 2026)

Experiments:
MSSA (SH1000) = assay: MIC against methicillin-susceptible S. aureus (MSSA); assay type: cell-based; conditions: Staphylococcus aureus; MSSA (SH1000); 72 hours, 37 °C; read-out: MIC
Procedure: (§1) The term “minimum inhibitory concentration (MIC)” means the lowest concentration of an antimicrobial agent that will inhibit the visible growth of a microorganism after overnight incubation. MIC values against bacteria, for example, the Gram-positive Staphylococcus aureus and Enterococcus faecalis and the Gram-negative Escherichia coli and Pseudomonas aeruginosa were determined by standard methods. See also P. A. Wayne, Methods for Dilution Antimicrobial Tests for Bacteria that Grow Aerobically; Approved Standard, Ninth Edition, 2012, CLSI Document M07-A9, Vol. 32 No. 2.
(§2) Biological testing procedures were adapted from prior work by Melander and coworkers. For all biological assays, laboratory strains of methicillin-susceptible Staphylococcus aureus MSSA (SH1000), Staphylococcus aureus CA-MRSA (USA300-0114), Staphylococcus aureus HA-MRSA (ATCC 33591), Escherichia coli (MC4100), Enterococcus faecalis (OG1RF), Acinetobacter baumannii (ATCC 17978), were grown with shaking at 37 °C overnight from freezer stocks in 5 mL of the indicated media: SH1000, OG1RF, MC4100, USA300-0114, and ATCC 17978 were grown in BDTM Mueller-Hinton broth (MHB), whereas ATCC 33591 was grown in BDTM tryptic soy broth (TSB). The inoculum were then streaked onto Mueller-Hinton agar (MHA) plates and grown overnight at 37 °C. From the plates, single colonies were selected, diluted into 50 mL of fresh media and grown overnight at 37 °C with shaking for use in the MIC assays. Optical density (OD) measurements were obtained using a SpectraMax iD3 plate reader (Molecular Devices, United States).
(§3) Compounds were serially diluted two-fold from stock solutions (1.0 mM) to yield twelve 100 μL test concentrations, wherein the starting concentration of dimethyl sulfoxide (DMSO) was 2.5%. Overnight S. aureus, E. faecalis, E. coli, A. baumannii, USA300-0114 (CA-MRSA), and ATCC 33591 (HA-MRSA) cultures were diluted to ca. 10^6 CFU/mL in MHB or TSB and regrown to mid-exponential phase, as determined by optical density recorded at 600 nm (OD600). All cultures were then diluted again to ca. 10^6 CFU/mL and 100 μL were inoculated into each well of a U-bottom 96-well plate (Corning, 351177) containing 100 μL of compound solution. Plates were incubated statically at 37 °C for 72 hours upon which wells were evaluated visually for bacterial growth. The MIC was determined as the lowest concentration of compound resulting in no bacterial growth visible to the naked eye, based on the highest value in three independent experiments. Aqueous DMSO controls were conducted as appropriate for each compound.
(§4) The prepared library of biscationic amphiphilic compounds was assessed for performance as antibacterial disinfectants by determining the minimum inhibitory concentration (MIC) for each against a panel of bacteria. The bacteria selected for the study were chosen to evaluate the broad spectrum antimicrobial performance of the QPCs, and therefore, included both Gram-positive and Gram-negative bacterial strains, including those with known antimicrobial resistance mechanisms. These bacteria include the Gram-positive strains of methicillin-susceptible Staphylococcus aureus [MSSA; SH1000], community-acquired methicillin-resistant Staphylococcus aureus [CA-MRSA; USA 300-0114], hospital-acquired methicillin-resistant Staphylococcus aureus [HA-MRSA; ATCC 33591] and the […], Escherichia coli [MC4100], Acinetobacter baumannii [ATCC 17498] and Pseudomonas aeruginosa [PAO1].

P. aeruginosa (PAO1) = assay: MIC against P. aeruginosa; assay type: cell-based; conditions: Pseudomonas aeruginosa; P. aeruginosa (PAO1); 72 hours, 37 °C; read-out: MIC
Procedure: as §1, §2, §3, §4

A. baumannii = assay: MBEC, biofilm eradication, A. baumannii; assay type: cell-based, Acinetobacter baumannii; conditions: 24 hours, 37 °C, TSB
Procedure: A regrowth assay was used to establish the MBEC of a compound to evaluate the antibiofilm activity.
Biofilm eradication experiments were performed using a pegged-lid microtiter plate assay to determine the MBEC values for compounds of interest, as previously described. […] Sci. Rep. 2017, 7, 2003; and Raval, Y. S., Flurin, L., Mohamed, A., Greenwood-Quaintance, K. E., Beyenal, H., & Patel, R. In Vitro Activity of Hydrogen Peroxide and Hypochlorous Acid Generated by Electrochemical Scaffolds Against Planktonic and Biofilm Bacteria. Antimicrob Agents Chemother. 2021, 65, e01966-20. Briefly, […] of mid-log phase culture diluted to ca. 10^6 CFU/mL in tryptic soy broth (TSB) was added to wells of plat-bottom 96-well plates (Thermo Scientific, 266120) and covered with 96-pegged lid (Thermo Scientific, 445497). Plates were incubated to establish bacterial biofilms after incubation at 37 °C for 24 hours. The pegged lid was then removed, washed with PBS, and transferred to another 96-well plate containing 2-fold serial dilutions of the test compounds (the “challenge plate”). The total volume in each well was […], comprising of […] of compound diluted in water/DMSO, with a starting DMSO concentration of 2.5%, and […] of TSB. Plates were incubated statically at 37 °C for 24 hours. Next, the pegged lids were transferred to a fresh 96-well plate containing […] of TSB and incubated overnight at 37 °C. MBEC values were determined as the lowest test concentration that resulted eradicated biofilm (i.e., wells displaying no turbidity in the final plate).

Structure (SMILES): CCCCCCCCCCCC[N+](C)(C)CC[N+](C)(C)CCCCCCCCCCCC [12(2)12, reference compound]
- MIC (MSSA (SH1000)): 2 µM
- MIC (P. aeruginosa (PAO1)): 8 µM
- MBEC (A. baumannii): 4 µM

Structure (SMILES): CCCCCCCCCCCC[P+](C)(C)CC[P+](C)(C)CCCCCCCCCCC [^MeP2P-12,12]
- MIC (MSSA (SH1000)): 2 µM
- MIC (P. aeruginosa (PAO1)): 8 µM
- MBEC (A. baumannii): 8 µM
